Measured values from US20260159519A1, “IMIDAZOPYRIDAZINE SUBSTITUTED BENZENE RING DERIVATIVE, PREPARATION METHOD, PHARMACEUTICAL COMPOSITION AND USE” (SHANGHAI SIMR BIOTECHNOLOGY CO., LTD., priority 2022, published 2026).

Legend:
[1] = biological target: T1, human α1-GABAA receptor (α1-GABAAR-HEK293 cells) (Homo sapiens, UniProt P14867+P18507); assay: Whole-cell patch-clamp electrophysiology, positive allosteric modulatory activity on α1-GABAA receptor; format: cell-based; conditions: read-out: α1-GABAA positive allosteric modulatory activity
T1 construct: expressed in transfected cells

[2] = tested on: Chinese hamster ovary cells (CHO-WBL cells); assay: In vitro micronucleus assay; format: cell-based; conditions: 3-hour treatment with S9, 3-hour and 24-hour treatment without S9; overall judgment
Description: The experimental design is based on the experimental purpose and follows the following experimental design guidelines: • (1) OECD Guidelines for the Testing of Chemicals 487, In Vitro Mammalian Cell Micronucleus Test, revised in 2016; • (2) ICH S2 (R1): Guideline on Genotoxicity Testing and Data Interpretation for Pharmaceuticals Intended for Human Use, validated in November 2011.
Experimental system and selection rationale: Chinese hamster ovary cells (CHO-WBL cells) were used as an experimental system in this experiment. The cell line has a karyotype containing 21 chromosomes and a growth cycle of 12 to 13 hours. CHO-WBL cells were originally derived from Dr. S. Wolff at the University of California in San Francisco, USA, then cloned in the laboratory of Dr. A. Bloom at Columbia University in New York, and cloned again by Dr. S. Galloway at Litton Bionetics Laboratory in Maryland. The cell stock solution was stored in liquid nitrogen. The karyotype of each batch of cell stock solution was identified, and tests confirmed that it was free from mycoplasma contamination. The number of passages after cell cloning will not exceed 15. Chinese hamster ovary cells were chosen because the cell line is recommended for use in OECD Guidelines for the Testing of Chemicals 487 and has been proven to be sensitive to a variety of clastogens/aneugens (Marilyn J. et al., 2006).
Medium and cell growth conditions: Chinese hamster ovary cells were cultured in McCoy's 5A complete medium (McCoy's 5A complete medium supplemented with 10 vt % fetal bovine serum, 2 mM GlutaMAX™ medium, 100 units/mL penicillin, and 100 μg/mL streptomycin), and grown in a standard environment (a high-humidity incubator with a temperature of 37° C. and a CO2 concentration of 5%). The day before administration, CHO-WBL cells in exponential growth phase were inoculated onto an eight-well cell culture slide at a density of 8×10^3 cells/400 μL McCoy's 5A complete medium/well.
Metabolic activation system: The in vitro metabolic activation system (Maron and Ames, 1983) contains a rat liver microsomal homogenate induced by β-naphthoflavone and phenobarbital (referred to as S9) and an NADPH-generating system (i.e., NADP disodium and isocitric acid trisodium). S9 was purchased from CHI Scientific, Inc. and stored in a −75° C. refrigerator prior to use. Preparation method for S9 homogenate: Male Sprague Dawley rats were intraperitoneally injected with a single dose of p-naphthoflavone and phenobarbital, followed by material preparation.
Preparation of S9 metabolic activation system: NADP disodium salt and isocitric acid trisodium salt were first dissolved in serum-free medium to prepare a core solution, which was then filtered through a 0.22 µm filter to sterilize. Immediately before use, the S9 homogenate was thawed, and the components of the S9 metabolic activation system were mixed in the proportions shown in Table 2 below.
Dose exploration experiment: In the dose exploration experiment, 8 administration concentrations were established in each administration treatment series. For each concentration of the test substance, 1 well of cells was set up. According to the ICH S2 (R1) guidelines, when not limited by the solubility of the test substance in the solvent/medium or the cytotoxicity of the test substance, the recommended maximum concentration is 1 mM or 0.5 mg/mL, whichever is lower. However, when limited by solubility, the test maximum concentration is the minimum concentration at which a small amount of precipitate is visible in the medium under the microscope. To ensure that the upper limit of solubility in the medium can be reached, up to 4 concentrations with visible precipitate can be tested.

[3] = biological target: T2, human α2-GABAA receptor (α2-GABAAR-HEK293 cells) (Homo sapiens, UniProt P18507+P47869); assay: Whole-cell patch-clamp electrophysiology, positive allosteric modulatory activity on α2-GABAA receptor; format: cell-based; conditions: read-out: α2-GABAA positive allosteric modulatory activity
T2 construct: expressed in transfected cells

[4] = biological target: T3, human α2-GABAA receptor (BZD site, membrane protein of HEK293 cells) (Homo sapiens, UniProt P18507+P47869); assay: Radioligand competitive binding assay (3H-flunitrazepam) at the BZD site of the α2-GABAA receptor; conditions: competition with 1 nM 3H-flunitrazepam; Ki calculated from IC50; read-out: α2 Ki
T3 construct: expressed in transfected cells

Row | activation at 0.1 µM [1] [%] | activation at 0.1 µM [3] [%] | Ki [4] [nM] | SMILES | Results of in vitro micronucleus assay [2]
1 | 29 | 122 | 9.24 | CCn1cnc2c(-c3ccc(F)c(-c4cc5cncnc5cc4OC)c3)cnnc21 [Example 164, 6-(5-(7-Ethyl-7H-imidazo[4,5-c]pyridazin-4-yl)-2-fluorophenyl)-7-methoxyquinazoline] | 
2 | 12 | 128 | 2.39 | CCn1cnc2c(-c3ccc(F)c(-c4cc5cc(COC)c(=O)n(C)c5cc4OC)c3)cnnc21 [Example 166, 6-(5-(7-Ethyl-7H-imidazo[4,5-c]pyridazin-4-yl)-2-fluorophenyl)-7-methoxy-3-(methoxymethyl)-1-methylquinolin-2(1H)-one] | 
3 | 35 | 125 | 13.9 | CCN1C(=O)Cc2cc(-c3cc(-c4cnnc5c4ncn5CC)ccc3F)c(OC)cc21 [Example 167, 1-Ethyl-5-(5-(7-ethyl-7H-imidazo[4,5-c]pyridazin-4-yl)-2-fluorophenyl)-6-methoxyindol-2-one] | 

Row | SMILES | activation at 0.1 µM [1] [%] | activation at 0.1 µM [3] [%] | Ki [4] [nM] | Results of in vitro micronucleus assay [2]
4 | CCn1cnc2c(-c3ccc(F)c(-c4ccc(S(=O)(=O)CC)cc4OC)c3)cnnc21 [CVL-865, reference compound] | 100 | 100 |  | Positive
